Legend:
Format in all cases: ADME, organism-based
[1] = Clearance in CD1 mouse at 3 mg/kg, iv; design: dose 3 mg/kg, route intravenous; settings: in vivo
[2] = Half life in CD1 mouse at 3 mg/kg, iv; design: dose 3 mg/kg, route intravenous; settings: in vivo
[3] = Bioavailability in CD1 mouse at 10 mg/kg, po; settings: in vivo
[4] = AUC in CD1 mouse at 10 mg/kg, po; design: dose 10 mg/kg, route oral; settings: plasma

Row | Compound | clearance [1] | half-life [2] | bioavailability [3] | AUC [4]
1 | CN1CCN(Cc2ccc3c(c2)Cc2c(-c4csc(C#CCNC(=O)c5ccccc5)c4)n[nH]c2-3)CC1 | – | – | 17% | 3500 ng·h/mL
2 | CN1CCN(Cc2ccc3c(c2)Cc2c-3n[nH]c2-c2csc(C#CCNC(=O)Nc3ccccc3)c2)CC1 | – | – | 0% | –

Next, values leading:

Row | clearance [1] | half-life [2] | bioavailability [3] | AUC [4] | Compound
3 | 41.7 mL/min/kg | 3 h | – | – | C(#Cc1cc(-c2n[nH]c3c2Cc2cc(Cn4cncn4)ccc2-3)cs1)COc1ccccc1
4 | – | 5.5 h | 75% | – | CN1CCN(Cc2ccc3c(c2)Cc2c-3n[nH]c2-c2csc(C#CCOc3ccccc3)c2)CC1
5 | 56.7 mL/min/kg | 0.3 h | 22% | – | COCCOCC#Cc1cc(-c2n[nH]c3c2Cc2cc(Cn4cncn4)ccc2-3)cs1
